From ChEMBL document CHEMBL5325496, “Discovery, SAR Study of GST Inhibitors from a Novel Quinazolin-4(1H)-one Focused DNA-Encoded Library” (J Med Chem, 2023)

Key:
Homo sapiens = species: Homo sapiens; assay: Inhibition of glutathione S-transferase (unknown origin) using CDNB as substrate at 50 uM by spectrophotometric analysis relative to control
[1] = target: T1, Glutathione-S-transferase (Schistosoma japonicum, UniProt Q26513); assay: Inhibition of Schistosoma japonicum GST by spectrophotometric analysis
T1 sequence (Q26513 whole entry): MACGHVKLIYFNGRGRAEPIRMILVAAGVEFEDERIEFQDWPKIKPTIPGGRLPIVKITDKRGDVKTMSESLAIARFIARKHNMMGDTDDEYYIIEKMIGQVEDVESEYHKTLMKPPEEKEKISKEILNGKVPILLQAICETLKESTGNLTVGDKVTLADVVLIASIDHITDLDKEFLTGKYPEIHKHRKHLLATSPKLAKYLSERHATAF

[2] = target: T2, Glutathione S-transferase Mu 2 (Homo sapiens, UniProt P28161); assay: Inhibition of human GSTM2 by spectrophotometric analysis
T2 sequence (P28161 whole entry): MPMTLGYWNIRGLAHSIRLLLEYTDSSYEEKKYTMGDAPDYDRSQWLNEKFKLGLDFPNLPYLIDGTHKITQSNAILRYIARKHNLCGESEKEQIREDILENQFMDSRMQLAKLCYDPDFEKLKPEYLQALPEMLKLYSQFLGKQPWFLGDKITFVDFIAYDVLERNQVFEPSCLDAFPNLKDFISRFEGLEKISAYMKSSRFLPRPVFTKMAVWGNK

Row | inhibition (Homo sapiens) [%] | IC50 [1] [µM] | IC50 [2] [µM] | SMILES
1 | 24.8 | – | – | COC(=O)c1ccccc1-c1ccc2nc(-c3ccc(Cl)s3)n(Cc3ccc(Cl)cc3)c(=O)c2c1
2 | 45.8 | – | – | O=c1c2cc(-c3ccccc3-c3nn[nH]n3)ccc2nc(-c2cccc(Cl)c2)n1Cc1ccc(Cl)cc1
3 | 55.6 | – | – | O=C(O)c1cccc(-c2ccc3nc(-c4ccc(Cl)s4)n(Cc4ccc(Cl)cc4)c(=O)c3c2)c1
4 | 24.6 | – | – | NC(=O)c1cccc(-c2ccc3nc(-c4ccc(Cl)s4)n(Cc4ccc(Cl)cc4)c(=O)c3c2)c1
5 | 78.7 | 16.6 | > 20 | O=C(O)c1ccccc1-c1ccc2nc(-c3ccc(Cl)s3)n(Cc3ccc(Cl)cc3)c(=O)c2c1
6 | 20.3 | – | – | O=c1c2cc(-c3ccccc3-c3nn[nH]n3)ccc2ncn1Cc1ccc(Cl)cc1
7 | 87.3 | 9.47 | 2.4 | O=C(O)CCn1c(-c2ccc(Cl)s2)nc2ccc(-c3ccccc3-c3nn[nH]n3)cc2c1=O
8 | 76.6 | – | – | O=C(O)CCCn1c(-c2ccc(Cl)s2)nc2ccc(-c3ccccc3-c3nn[nH]n3)cc2c1=O
9 | 89 | 4.26 | 6.15 | O=c1c2cc(-c3ccccc3-c3nn[nH]n3)ccc2nc(-c2cccs2)n1Cc1ccc(Cl)cc1
10 | 92.5 | 5.46 | 4.03 | O=c1c2cc(-c3ccccc3-c3nn[nH]n3)ccc2nc(-c2ccc(Cl)s2)n1Cc1ccc(Cl)cc1
11 | 65.3 | – | – | Cn1nccc1-c1nc2ccc(-c3ccccc3-c3nn[nH]n3)cc2c(=O)n1Cc1ccc(Cl)cc1
12 | 87.5 | – | – | CCOC(=O)CCn1c(-c2ccc(Cl)s2)nc2ccc(-c3ccccc3-c3nn[nH]n3)cc2c1=O
13 | – | 1.84 | > 20 | C=C(CC)C(=O)c1ccc(OCC(=O)O)c(Cl)c1Cl [ETHACRYNIC ACID]
14 | 83.6 | 8.86 | 3.38 | O=c1c2cc(-c3ccccc3-c3nn[nH]n3)ccc2nc(-c2ccc(Cl)s2)n1Cc1ccccc1
15 | 98.8 | 1.55 | 2.02 | O=C(O)C(Cc1ccc(Cl)cc1)Cn1c(-c2ccc(Cl)s2)nc2ccc(-c3ccccc3-c3nn[nH]n3)cc2c1=O (stereo not drawn)
16 | 20.2 | – | – | O=c1c2cc(Br)ccc2nc(-c2ccc(Cl)s2)n1Cc1ccc(Cl)cc1
17 | 12.9 | – | – | CS(=O)(=O)c1ccccc1-c1ccc2nc(-c3ccc(Cl)s3)n(Cc3ccc(Cl)cc3)c(=O)c2c1
18 | 90.8 | – | – | O=c1c2cc(-c3ccccc3-c3nn[nH]n3)ccc2nc(-c2ccc(Cl)s2)n1CCc1ccc(Cl)cc1
19 | 54.4 | – | – | O=C(O)c1cc(-c2ccc3nc(-c4ccc(Cl)s4)n(Cc4ccc(Cl)cc4)c(=O)c3c2)ccc1F
20 | – | – | 1.81 | COc1cc(/C=C/C(=O)CC(=O)/C=C/c2ccc(O)c(OC)c2)ccc1O [CURCUMIN]
